Assay results as given in patent US6737383B1, “Herbicidal oxadiazolidines” (priority 1999, dated 2004).

Legend:
rape = experiment: Test B pre/postemergence rape; format: in vivo, Brassica napus
Procedure, shortened: (§1)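 Herbicidal effect was estimated by eye on a ten-point control scale after plants spent twelve to sixteen days in a greenhouse following soil or foliar treatment. Foliar sprays targeted plants at one to four leaves; all doses were formulated in a non-phytotoxic solvent with surfactant.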

giant foxtail = experiment: Test B pre/postemergence giant foxtail; format: in vivo, Setaria faberii
Procedure, shortened: as §1

purple nutsedge = experiment: Test B pre/postemergence purple nutsedge; format: in vivo, Cyperus rotundus
Procedure, shortened: as §1

morningglory = experiment: Test B pre/postemergence morningglory; format: in vivo, Ipomoea hederacea
Procedure, shortened: as §1

soybean = experiment: Test B pre/postemergence soybean; format: in vivo, Glycine max
Procedure, shortened: as §1

blackgrass = experiment: Test B pre/postemergence blackgrass; format: in vivo, Alopecurus myosuroides
Procedure, shortened: as §1

corn = experiment: Test B pre/postemergence corn; format: in vivo, Zea mays
Procedure, shortened: as §1

surinam grass = experiment: Test B pre/postemergence surinam grass; format: in vivo, Brachiaria decumbens
Procedure, shortened: as §1

velvetleaf = experiment: Test B pre/postemergence velvetleaf; format: in vivo, Abutilon theophrasti
Procedure, shortened: as §1

bedstraw = experiment: Test B pre/postemergence bedstraw; format: in vivo, Galium aparine
Procedure, shortened: as §1

wheat = experiment: Test B pre/postemergence wheat; format: in vivo, Triticum aestivum
Procedure, shortened: as §1

pigweed = experiment: Test B pre/postemergence pigweed; format: in vivo, Amaranthus retroflexus
Procedure, shortened: as §1

wild oat = experiment: Test B pre/postemergence wild oat; format: in vivo, Avena fatua
Procedure, shortened: as §1

cocklebur = experiment: Test B pre/postemergence cocklebur; format: in vivo, Xanthium strumarium
Procedure, shortened: as §1

crabgrass = experiment: Test B pre/postemergence crabgrass; format: in vivo, Digitaria sanguinalis
Procedure, shortened: as §1

[1] = Postemergence, Rate 62 g/ha, scale 0 to 10, 0 is no effect, 10 is complete control
[2] = Postemergence, Rate 250 g/ha, scale 0 to 10, 0 no effect, 10 complete control
[3] = Preemergence, Rate 62 g/ha, scale 0 to 10 (0 no effect, 10 complete control)
[4] = Preemergence, Rate 125 g/ha, scale 0 to 10 (0 no effect, 10 complete control)
[5] = Preemergence, Rate 250 g/ha, scale of 0 to 10 where 0 is no effect and 10 is complete control
[6] = Preemergence, Rate 500 g/ha, scale 0 (no effect) to 10 (complete control)
[7] = Rate 125 g/ha, Postemergence, scale 0 to 10, 0 no effect, 10 complete control
[8] = Rate 500 g/ha, Postemergence, scale 0 to 10, 0 no effect, 10 complete control

`CCN(CC)C(=O)n1oc(=O)n(Cc2cccs2)c1=O` [Compound 77] was tested, and the “Rape plant response rating” value (rape; [1]) was 0, the “Rape plant response rating” value (rape; [2]) was 0 and the “Rape plant response rating” value (rape; [3]) was 0. For the same molecule, the “Plant response rating, Rape” value (rape; [4]) was 0, the “Plant response rating, Rape” value (rape; [5]) was 0 and the “Rape plant response rating” value (rape; [6]) was 0. The “Rape plant response rating” value (rape; [7]) was 0, the “Rape plant response rating” value (rape; [8]) was 3 and the “Giant foxtail plant response rating” value (giant foxtail; [1]) was 0. For the same molecule, the “Giant foxtail plant response rating” value (giant foxtail; [2]) was 0, the “Giant foxtail plant response rating” value (giant foxtail; [3]) was 0 and the “Plant response rating, Giant foxtail” value (giant foxtail; [4]) was 0. For the same molecule, the “Plant response rating, Giant foxtail” value (giant foxtail; [5]) was 3, the “Giant foxtail plant response rating” value (giant foxtail; [6]) was 5 and the “Giant foxtail plant response rating” value (giant foxtail; [7]) was 0. For the same molecule, the “Giant foxtail plant response rating” value (giant foxtail; [8]) was 2, the “Nutsedge plant response rating” value (purple nutsedge; [1]) was 0 and the “Nutsedge plant response rating” value (purple nutsedge; [2]) was 0. For the same molecule, the “Nutsedge plant response rating” value (purple nutsedge; [3]) was 0, the “Plant response rating, Nutsedge” value (purple nutsedge; [4]) was 2 and the “Plant response rating, Nutsedge” value (purple nutsedge; [5]) was 3. The “Nutsedge plant response rating” value (purple nutsedge; [6]) was 6, the “Nutsedge plant response rating” value (purple nutsedge; [7]) was 0 and the “Nutsedge plant response rating” value (purple nutsedge; [8]) was 0. The “Morningglory plant response rating” value (morningglory; [1]) was 0, the “Morningglory plant response rating” value (morningglory; [2]) was 0 and the “Morningglory plant response rating” value (morningglory; [3]) was 0. The “Plant response rating, Morningglory” value (morningglory; [4]) was 0, the “Plant response rating, Morningglory” value (morningglory; [5]) was 0 and the “Morningglory plant response rating” value (morningglory; [6]) was 0. For the same molecule, the “Morningglory plant response rating” value (morningglory; [7]) was 0, the “Morningglory plant response rating” value (morningglory; [8]) was 0 and the “Soybean plant response rating” value (soybean; [1]) was 0. The “Soybean plant response rating” value (soybean; [2]) was 1, the “Soybean plant response rating” value (soybean; [3]) was 0 and the “Plant response rating, Soybean” value (soybean; [4]) was 0. The “Plant response rating, Soybean” value (soybean; [5]) was 0, the “Soybean plant response rating” value (soybean; [6]) was 0 and the “Soybean plant response rating” value (soybean; [7]) was 0. The “Soybean plant response rating” value (soybean; [8]) was 1, the “Blackgrass plant response rating” value (blackgrass; [1]) was 0 and the “Blackgrass plant response rating” value (blackgrass; [2]) was 0. The “Blackgrass plant response rating” value (blackgrass; [3]) was 0, the “Plant response rating, Blackgrass” value (blackgrass; [4]) was 0 and the “Plant response rating, Blackgrass” value (blackgrass; [5]) was 0. The “Blackgrass plant response rating” value (blackgrass; [6]) was 0, the “Blackgrass plant response rating” value (blackgrass; [7]) was 0 and the “Blackgrass plant response rating” value (blackgrass; [8]) was 4. For the same molecule, the “Corn plant response rating” value (corn; [1]) was 0, the “Corn plant response rating” value (corn; [2]) was 0 and the “Corn plant response rating” value (corn; [3]) was 0. The “Plant response rating, Corn” value (corn; [4]) was 0, the “Plant response rating, Corn” value (corn; [5]) was 0 and the “Corn plant response rating” value (corn; [6]) was 0. For the same molecule, the “Corn plant response rating” value (corn; [7]) was 0, the “Corn plant response rating” value (corn; [8]) was 0 and the “B. signalgrass plant response rating” value (surinam grass; [1]) was 0. The “B. signalgrass plant response rating” value (surinam grass; [2]) was 0, the “B. signalgrass plant response rating” value (surinam grass; [3]) was 0 and the “Plant response rating, B. signalgrass” value (surinam grass; [4]) was 0. The “Plant response rating, B. signalgrass” value (surinam grass; [5]) was 0, the “B. signalgrass plant response rating” value (surinam grass; [6]) was 0 and the “B. signalgrass plant response rating” value (surinam grass; [7]) was 0. For the same molecule, the “B. signalgrass plant response rating” value (surinam grass; Rate 500 g/ha, Postemergence, scale of 0 to 10 where 0 is no effect and 10 is complete control) was 2, the “Velvetleaf plant response rating” value (velvetleaf; [1]) was 0 and the “Velvetleaf plant response rating” value (velvetleaf; [2]) was 0. For the same molecule, the “Velvetleaf plant response rating” value (velvetleaf; [3]) was 0, the “Plant response rating, Velvetleaf” value (velvetleaf; [4]) was 0 and the “Plant response rating, Velvetleaf” value (velvetleaf; [5]) was 0. For the same molecule, the “Velvetleaf plant response rating” value (velvetleaf; [6]) was 3, the “Velvetleaf plant response rating” value (velvetleaf; [7]) was 0 and the “Velvetleaf plant response rating” value (velvetleaf; [8]) was 0. For the same molecule, the “Bedstraw plant response rating” value (bedstraw; [1]) was 0, the “Bedstraw plant response rating” value (bedstraw; [2]) was 0 and the “Bedstraw plant response rating” value (bedstraw; [3]) was 0. For the same molecule, the “Plant response rating, Bedstraw” value (bedstraw; [4]) was 0, the “Plant response rating, Bedstraw” value (bedstraw; [5]) was 0 and the “Bedstraw plant response rating” value (bedstraw; [6]) was 0. For the same molecule, the “Bedstraw plant response rating” value (bedstraw; [7]) was 0, the “Bedstraw plant response rating” value (bedstraw; [8]) was 0 and the “Wheat plant response rating” value (wheat; [1]) was 0. For the same molecule, the “Wheat plant response rating” value (wheat; [2]) was 0, the “Wheat plant response rating” value (wheat; [3]) was 0 and the “Plant response rating, Wheat” value (wheat; [4]) was 0. For the same molecule, the “Plant response rating, Wheat” value (wheat; [5]) was 0, the “Wheat plant response rating” value (wheat; [6]) was 0 and the “Wheat plant response rating” value (wheat; [7]) was 0. The “Wheat plant response rating” value (wheat; [8]) was 4, the “Redroot pigweed plant response rating” value (pigweed; [1]) was 0 and the “Redroot pigweed plant response rating” value (pigweed; [2]) was 0. For the same molecule, the “Redroot pigweed plant response rating” value (pigweed; [3]) was 0, the “Plant response rating, Redroot pigweed” value (pigweed; [4]) was 0 and the “Plant response rating, Redroot pigweed” value (pigweed; [5]) was 0. For the same molecule, the “Redroot pigweed plant response rating” value (pigweed; [6]) was 0, the “Redroot pigweed plant response rating” value (pigweed; [7]) was 0 and the “Redroot pigweed plant response rating” value (pigweed; [8]) was 0. The “Wild oats plant response rating” value (wild oat; [1]) was 0, the “Wild oats plant response rating” value (wild oat; [2]) was 0 and the “Wild oats plant response rating” value (wild oat; [3]) was 0. The “Plant response rating, Wild oats” value (wild oat; [4]) was 0, the “Plant response rating, Wild oats” value (wild oat; [5]) was 0 and the “Wild oats plant response rating” value (wild oat; [6]) was 0. The “Wild oats plant response rating” value (wild oat; [7]) was 0, the “Wild oats plant response rating” value (wild oat; [8]) was 3 and the “Cocklebur plant response rating” value (cocklebur; [1]) was 0. For the same molecule, the “Cocklebur plant response rating” value (cocklebur; [2]) was 0, the “Cocklebur plant response rating” value (cocklebur; [3]) was 0 and the “Plant response rating, Cocklebur” value (cocklebur; [4]) was 0. The “Plant response rating, Cocklebur” value (cocklebur; [5]) was 0, the “Cocklebur plant response rating” value (cocklebur; [6]) was 0 and the “Cocklebur plant response rating” value (cocklebur; [7]) was 0. The “Cocklebur plant response rating” value (cocklebur; [8]) was 4, the “Crabgrass plant response rating” value (crabgrass; [1]) was 0 and the “Crabgrass plant response rating” value (crabgrass; [2]) was 0. The “Crabgrass plant response rating” value (crabgrass; [3]) was 0, the “Plant response rating, Crabgrass” value (crabgrass; [4]) was 2 and the “Plant response rating, Crabgrass” value (crabgrass; [5]) was 2. The “Crabgrass plant response rating” value (crabgrass; [6]) was 3, the “Crabgrass plant response rating” value (crabgrass; [7]) was 0 and the “Crabgrass plant response rating” value (crabgrass; [8]) was 0.
